Patent US20240294543A1, “CYCLOHEPTA-THIENO-DIAZEPINE DERIVATIVES AS GABA A GAMMA1 PAM” (Hoffmann-La Roche Inc., priority 2021, published 2024)
pKi: −log10 of the molar value. Read-outs that look alike come from different tables or passages of the source.

How the values were obtained:
[1] = target: human GABAA α1β3γ2 receptor (Homo sapiens (Human), UniProt P14867+P18507); experiment: Radioligand binding assay, competition for [3H]Flumazenil, γ2-containing GABAA subtypes; settings: for γ2/γ1 Selectivity Ratio: Ki α1β3γ2 (nM)/Ki α2β2γ1 (nM); for LogSel: Log[Ki α1β3γ2 (nM)/Ki α2β2γ1 (nM)]
Procedure: The affinity of compounds at GABAA γ2 subunit-containing receptors was measured by competition for [^3H]Flumazenil (81.1 Ci/mmol; Roche) binding to HEK293F cells expressing human (transiently transfected) receptors of composition α1β3γ2.
Harvested pellets from HEK293F cells expressing the different GABAA γ2 receptor subtypes were resuspended in Mannitol Buffer pH 7,2-7,4 and processed as described above for the cells expressing the GABAA γ1 subunit-containing receptors.
Assays were incubated to equilibrium for 1 hour at 4° C. and harvested onto GF/C uni-filters (Packard) by filtration using a Packard harvester and washing with ice-cold wash buffer (50 mM Tris; pH 7.5). After anhydrousing, filter-retained radioactivity was detected by liquid scintillation counting. Ki values were calculated using Excel-Fit (Microsoft) and are the means of two determinations.

[2] = target: human GABAA α2β2γ1 receptor (Homo sapiens (Human), UniProt P47869+Q8N1C3); experiment: Radioligand binding assay, competition for [3H]RO7239181, γ1-containing GABAA subtypes; settings: Ki h-GABAA α2β2γ1, membranes of HEK293F cells, [3H]RO7239181 20-30 nM
Procedure: (§1) The affinity of compounds at GABAA γ1 subunit-containing receptors was measured by competition for [^3H]RO7239181 (67.3 Ci/mmol; Roche) binding to membranes from HEK293F cells (ThermoFisher R79007) expressing human (transiently transfected) receptors of composition α5β2γ1, α2β2γ1, α1β2γ1.
(§2) Harvested pellets from HEK293F cells expressing the different GABAA receptor subtypes were resuspended in Mannitol Buffer pH 7.2-7.4 (Mannitol 0.29 M, Triethylamine 10 mM, Acetic acid 10 mM, EDTA 1 mM plus protease inhibitors (20 tablets Complete, Roche Diagnostics Cat. No. 05 056 489 001 per liter)), washed two times and then resuspended at 1:10 to 1:15 dilution in the same buffer. Cell disruption was performed by stirring the suspension in a Parr vessel #4637 at 435 psi for 15 minutes, and then the suspensions were centrifuged at 1000×g for 15 minutes at 4° C. (Beckman Avanti J-HC; rotor JS-4.2). The supernatant (S1) was transferred in a 21 Schott flask and the pellet (P1) was resuspended with Mannitol Buffer up to 175 ml. The resuspended pellet was transferred into a 250 ml Corning centrifugal beaker and centrifuged at 1500×g for 10 minutes at 4° C. (Beckman Avanti J-HC; rotor JS-4.2). The supernatant (S1) was then transferred in the 21 Schott flask and the pellet was discarded. The supernatants (S1) were centrifuged in 500 ml Beckman polypropylene centrifugal beaker at 15'000×g for 30 minutes at 4° C. (Beckman Avanti J-20 XP; rotor JLA-10.500). The pellet (P2) was resuspended with Mannitol Buffer 1:1 and frozen at −80° C. The supernatant (S2) was centrifuged in 100 ml Beckman polypropylene centrifugal tubes at 48000×g for 50 minutes at 4° C. (Beckman Avanti J-20 XP; rotor JA-18). The supernatant (S3) was discarded and the pellet (P3) was resuspended with 1:1 Mannitol Buffer. The P2 and P3 protein concentration was determined with the BIORAD Standard assay method with bovine serum albumin as standard and measured on the NANO-Drop 1000. The membrane suspension was aliquots (500 μl per tube) and stored at −80° C. until required.
(§3) Membrane homogenates were resuspended and polytronised (Polytron PT1200E Kinematica AG) in Potassium Phosphate 10 mM, KCl 100 mM binding buffer at pH 7.4 to a final assay concentration determined with a previous experiment.
(§4) Assays were incubated to equilibrium for 1 hour at 4° C. and then, membranes were filtered onto unifilter (96-well white microplate with bonded GF/C filters preincubated 20-50 minutes in 0.3% Polyethylenimine) with a Filtermate 196 harvester (Packard BioScience) and washed 4 times with cold Potassium Phosphate 10 mM pH 7.4, KCl 100 mM binding buffer. After anhydrousing, filter-retained radioactivity was detected by liquid scintillation counting. Ki values were calculated using Excel-Fit (Microsoft) and are the means of two determinations.

[3] = target: human GABAA α5β2γ1 receptor (Homo sapiens (Human), UniProt P31644+Q8N1C3); experiment: as above
Procedure: as §1, with “α1β2γ1. For better protein expression of the α2 subunit-containing receptors, the 28 amino acid long signal peptide (Met1 to Ala28) of the human GABAA α2 subunit was substituted by the 31 amino acid long signal peptide (Met1 to Ser31) of human GABAA α5 subunit.” for “α1β2γ1.”
as §2, §3
as §4, with “Radioligand binding assays were carried out in a volume of 200 μL (96-well plates) which contained 100 μL of cell membranes, [^3H]RO7239181 at a concentration of 1.5 nM (α5β2γ1) or 20-30 nM (α1β2γ1, α2β2γ1) and the test compound in the range of [0.3-10000]×10^−9 M. Nonspecific binding was defined by 10×10^−6 (α5β2γ1) and 30×10^−6 M RO7239181 and typically represented less than 5% (α5β2γ1) and less than 20% (α1β2γ1, α2β2γ1) of the total binding. Assays” for “Assays”

[4] = HEK293F cells, [3H]Flumazenil 1 nM, Table 1, read-out: Ki h-GABAA α1β3γ2

| SMILES | pKi [1] | γ2/γ1 Selectivity Ratio ([1]; Table 1) | LogSel ([1]; Table 1) | pKi ([2]; Table 1) | pKi ([2]; Table 2) | pKi [3] | pKi [1, 4] |
| --- | --- | --- | --- | --- | --- | --- | --- |
| Cc1nnc2n1-c1sc3c(c1C(c1c(F)cccc1F)=N[C@H]2C)CCCC[C@H]3F (single isomer, unassigned) [Example 11] | 6.08 | 47.3 | 1.67 | 7.76 | 7.76 | 8.57 |  |
| CCc1nc2n(n1)-c1sc3c(c1C(c1c(F)cccc1F)=N[C@H]2C)COC[C@H](C)O3 [Example 49, (7S,15S)-9-(2,6-difluorophenyl)-4-ethyl-7,15-dimethyl-13,16-dioxa-18-thia-2,3,5,8-tetrazatetracyclo[8.8.0.02,6.011,17]octadeca-1(10),3,5,8,11(17)-pentaene] | 5.06 | 166.8 | 2.22 | 7.28 | 7.28 | 8.48 |  |
| Cc1nnc2n1-c1sc3c(c1C(c1c(F)cccc1F)=N[C@H]2C)CCC(F)C(F)C3 (single isomer, unassigned) [Example 34] | 4.97 | 340.3 | 2.53 | 7.50 | 7.50 | 7.68 |  |
| C[C@@H]1N=C(c2c(F)cccc2F)c2c(sc3c2COCCC3)-n2nc(C(=O)NC[C@@](C)(O)C(F)(F)F)nc21 [Example 70, (7S)-9-(2,6-difluorophenyl)-7-methyl-N-[(2R)-3,3,3-trifluoro-2-hydroxy-2-methyl-propyl]-13-oxa-18-thia-2,3,5,8-tetrazatetracyclo[8.8.0.02,6.011,17]octadeca-1(10),3,5,8,11(17)-pentaene-4-carboxamide] |  | 71.1 | 1.85 | 7.30 | 7.30 | 8.24 | 5.45 |
| Cc1nnc2n1-c1sc3c(c1C(c1c(F)cccc1F)=N[C@H]2C)CCCCC3 [Example 2, (7S)-9-(2,6-difluorophenyl)-3,7-dimethyl-18-thia-2,4,5,8-tetrazatetracyclo[8.8.0.02,6.011,17]octadeca-1(10),3,5,8,11(17)-pentaene] | 6.00 | 133.9 | 2.13 | 8.13 | 8.13 | 8.77 |  |
| Cc1nnc2n1-c1sc3c(c1C(c1c(F)cccc1F)=N[C@H]2C)CC[C@@H](F)CC3 (single isomer, unassigned) [Example 15] | 5.45 | 82.5 | 1.92 | 7.37 | 7.37 | 8.10 |  |
| C[C@@H]1N=C(c2c(F)cccc2F)c2c(sc3c2COCCC3)-n2cc(C(=O)NCC3(O)CC3)nc21 [Example 68, (7S)-9-(2,6-difluorophenyl)-N-[(1-hydroxycyclopropyl)methyl]-7-methyl-13-oxa-18-thia-2,5,8-triazatetracyclo[8.8.0.02,6.011,17]octadeca-1(10),3,5,8,11(17)-pentaene-4-carboxamide] |  | 187.5 | 2.27 | 7.97 | 7.97 | 8.53 | 5.70 |
| C[C@@H]1N=C(c2c(F)cccc2F)c2c(sc3c2COCCC3)-n2cc(C(=O)NCC(C)(C)O)nc21 [Example 67, (7S)-9-(2,6-difluorophenyl)-N-(2-hydroxy-2-methyl-propyl)-7-methyl-13-oxa-18-thia-2,5,8-triazatetracyclo[8.8.0.02,6.011,17]octadeca-1(10),3,5,8,11(17)-pentaene-4-carboxamide] |  | 84.5 | 1.93 | 7.67 | 7.67 | 8.13 | 5.74 |
| C[C@@H]1N=C(c2c(F)cccc2F)c2c(sc3c2COC[C@H](C)O3)-n2nc(C(=O)N3CC(F)C3)nc21 [Example 40, [(7S,15S)-9-(2,6-difluorophenyl)-7,15-dimethyl-13,16-dioxa-18-thia-2,3,5,8-tetrazatetracyclo[8.8.0.02,6.011,17]octadeca-1(10),3,5,8,11(17)-pentaen-4-yl]-(3-fluoroazetidin-1-yl)methanone] |  | 568.5 | 2.75 | 7.69 | 7.69 | 8.58 | 4.93 |
| Cc1nnc2n1-c1sc3c(c1C(c1c(F)cccc1Cl)=N[C@H]2C)COCCO3 [Example 35, (7S)-9-(2-chloro-6-fluoro-phenyl)-3,7-dimethyl-13,16-dioxa-18-thia-2,4,5,8-tetrazatetracyclo[8.8.0.02,6.011,17]octadeca-1(10),3,5,8,11(17)-pentaene] | 5.40 | 209.5 | 2.32 | 7.73 | 7.73 | 8.28 |  |
| Cc1nnc2n1-c1sc3c(c1C(c1c(F)cccc1F)=N[C@H]2C)CCCC[C@@H]3F (single isomer, unassigned) [Example 12] | 6.00 | 29.9 | 1.48 | 7.47 | 7.47 | 8.58 |  |
| Cc1nnc2n1-c1sc3c(c1C(c1c(F)cccc1F)=N[C@H]2C)OCCCC3 [Example 33, (7S)-9-(2,6-difluorophenyl)-3,7-dimethyl-12-oxa-18-thia-2,4,5,8-tetrazatetracyclo[8.8.0.02,6.011,17]octadeca-1(10),3,5,8,11(17)-pentaene] | 5.43 | 66.5 | 1.82 | 7.25 | 7.25 | 7.66 |  |
| Cc1nnc2n1-c1sc3c(c1C(c1c(F)cccc1F)=N[C@H]2C)CCCCC3O (mixture of isomers) [Example 9, (7S,16RS)-9-(2,6-difluorophenyl)-3,7-dimethyl-18-thia-2,4,5,8-tetrazatetracyclo[8.8.0.02,6.011,17]octadeca-1(10),3,5,8,11(17)-pentaen-16-ol] | 5.95 | 79.4 | 1.90 | 7.84 | 7.84 | 8.55 |  |
